Source: article PMC4756062 (Clinical Pharmacokinetics, 2015)
“Also recorded” adds a separate entry of the source. Read-outs that look alike come from different tables or passages of the source.

Experiments:
[1] = assay type: in vivo, human (breast cancer patients); settings: for AUC(0-t): AUC0–24, plasma; for C trough: concentration before dosing; for C trough / C trough, ratio of weak to potent CYP2D6-inhibiting SSRI: 10 patients
[2] = Adverse effects recorded during the antidepressant switch study; assay type: in vivo, human (breast cancer patients)
[3] = after versus before the switch, median (range)
[4] = female, human, plasma, tamoxifen + potent CYP2D6-inhibiting SSRI (paroxetine or fluoxetine), median (range), dose corrected to 20 mg tamoxifen
[5] = female, human, plasma, C max, plasma, tamoxifen + potent CYP2D6-inhibiting SSRI (paroxetine or fluoxetine), median (range), dose corrected to 20 mg tamoxifen
[6] = plasma, tamoxifen + potent CYP2D6-inhibiting SSRI (paroxetine or fluoxetine), median (range)
[7] = plasma, after versus before the switch, median (range)
[8] = plasma, switch from paroxetine/fluoxetine to escitalopram
[9] = tamoxifen + potent CYP2D6-inhibiting SSRI (paroxetine or fluoxetine), median (range)
[10] = plasma, tamoxifen + potent CYP2D6-inhibiting SSRI (paroxetine or fluoxetine), median (range), dose corrected to 20 mg tamoxifen

AUC(0-t) [1, 4] [µM·h] | Cmax [1, 5] [nM] | C trough [1, 6] | AUC0–24, ratio of weak to potent CYP2D6-inhibiting SSRI [1, 7] | C max, ratio of weak to potent CYP2D6-inhibiting SSRI [1, 7] | C trough, ratio of weak to potent CYP2D6-inhibiting SSRI [1, 7] | Compound | other results
0.0638 | 3.46 | 2.47 (1.29–4.65) nM | 1.34 (0.88–1.87) | 1.42 (0.81–2.05) | 1.40 (0.82–2.06) | CC/C(=C(\c1ccc(O)cc1)c1ccc(OCCN(C)C)cc1)c1ccccc1 [4-OH-Tam, 4-hydroxytamoxifen] | AUC0–24 ratio 4-OH-Tam to tamoxifen, ratio of weak to potent CYP2D6-inhibiting SSRI [1, 3]: 1.51 (1.08–1.67); AUC0–24 ratio 4-OH-Tam to tamoxifen, ratio of weak to potent CYP2D6-inhibiting SSRI ([1]; after versus before the switch, median (range), listed as 4-hydroxytamoxifen): ~ 1.5; Increase in AUC0–24 after the switch [1, 8]: 34%; Increase in Cmax after the switch [1, 8]: 42%; Increase in Ctrough after the switch [1, 8]: 40%; AUC0–24 ratio 4-OH-Tam to tamoxifen [1, 9]: 0.0109 (0.0053–0.014)
0.0992 | 5.46 | 5.20 (3.48–10.6) nM | – | 2.96 (1.50–7.44) | 2.80 (1.02–6.33) | CC/C(=C(\c1ccc(O)cc1)c1ccc(OCCNC)cc1)c1ccccc1 [Endoxifen, 4-hydroxy-N-desmethyl-tamoxifen] | AUC0–24 ratio endoxifen to ND-Tam, ratio of weak to potent CYP2D6-inhibiting SSRI [1, 3]: 3.33 (1.56–5.37); Fold higher endoxifen exposure after the switch, single patient ([1]; one person using 40 mg tamoxifen (dose corrected to 20 mg)): 2.9 fold; C max, ratio of weak to potent CYP2D6-inhibiting SSRI ([1]; plasma, after versus before the switch, median (range), listed as endoxifen): ~ 3; AUC0–24 ratio endoxifen to ND-Tam [1, 9]: 0.0113 (0.0065–0.014); AUC0–24 ratio endoxifen to tamoxifen [1, 9]: 0.0213 (0.0057–0.029)
– | – | 446 (306–807) nM | 1.09 (0.75–1.27) | 1.09 (0.77–1.75) | 0.97 (0.76–1.37) | CC/C(=C(\c1ccccc1)c1ccc(OCCNC)cc1)c1ccccc1 [ND-Tam, N-desmethyltamoxifen] | AUC0–24 [1, 10]: 10,149 (7744–20,107) nM·h; Cmax [1, 10]: 528 nM

The remaining lines, values behind:

Compound | AUC(0-t) [1, 4] [µM·h] | Cmax [1, 5] [nM] | C trough [1, 6] | AUC0–24, ratio of weak to potent CYP2D6-inhibiting SSRI [1, 7] | C max, ratio of weak to potent CYP2D6-inhibiting SSRI [1, 7] | C trough, ratio of weak to potent CYP2D6-inhibiting SSRI [1, 7] | other results
CC/C(=C(\c1ccccc1)c1ccc(OCCN(C)C)cc1)c1ccccc1 [Tamoxifen, reference compound] | 6.42 | 369 | 278 (128–557) nM | – | – | – | –
CN(C)CCC[C@@]1(c2ccc(F)cc2)OCc2cc(C#N)ccc21 [escitalopram, S-citalopram] | – | – | – | – | – | – | Hot flashes ([2]; tamoxifen-treated women, during co-administration): hot flashes were reported particularly during escitalopram co-administration; Safety of switching from paroxetine/fluoxetine to escitalopram (antidepressant-related adverse events, psychiatric relapse) ([2]; tamoxifen-treated women, escitalopram 10–20 mg/day, cross-tapering): safe and feasible; also recorded: No antidepressant-related adverse events or psychiatric relapse were noted; Discontinuation of treatment ([2]; ten tamoxifen-treated women): None of the ten women had to discontinue
